By pIC50 is commonly meant −log10 of the IC50, conventionally taken in molar units. Higher therefore signals a low IC50.

Among the data in US20190241569A1, “3-(ARYL OR HETEROARYL) METHYLENEINDOLIN-2-ONE DERIVATIVES AS INHIBITORS OF CANCER STEM CELL PATHWAY KINASES FOR THE TREATMENT OF CANCER” (Boston Biomedical, Inc., priority 2013, published 2019) are IC50, inhibition and activity values, retold here.

Test [1] has as its system FaDu CSC. Briefly: Cancer stem cells, Cell Titer-Glo 72 hours (Test Example 3). It counts as cell-based. Particulars: Homo sapiens, FaDu, 72 h. In general terms: In ATP-based viability assays light output follows the ATP content of the culture.
In test [2] the test system is FaDu. Briefly: Bulk cancer cells, Cell Titer-Glo 72 hours (Test Example 2). It counts as cell-based. Particulars: Homo sapiens. The method, then: (§1) Tubes of 3× drug (60 uM in 500 uL complete media) were prepared from 5 mM stock solutions in DMSO. […] To treat cells, 50 uL of drug from the dilution plate was removed and added to the cell plates. […] Cells were harvested 72 hours after drug addition using Cell Titer-Glo (Promega) and luminescence measured on a plate reader.

Test [3] deals with ACHN. The test is described as above. Particulars: Homo sapiens, ACHN, 72 h. It counts as cell-based. The method, then:
as §1

Test [4] addresses T1, human RIOK2 protein (Homo sapiens, UniProt Q9BVS4).
T1 construct: glutathione S-transferase is fused to N-terminal of a full-length human RIOK2 protein; GST (glutathione S-transferase) (N); purchased CarnaBio, Inc; host or cells: baculovirus-Sf21 cell expression system
Briefly: RIOK2 autophosphorylation ELISA (Test Example 4). The class given is biochemical. The following applies: for inhibition at 10 µM: read-out: Inhibitory activity at 10 μM (%); for inhibition at 1 µM: read-out: Inhibitory activity at 1 μM (%). The method, then:
A protein in which glutathione S-transferase is fused to N-terminal of a full-length human RIOK2 protein was used as a recombinant human RIOK2 protein. The protein was prepared using a baculovirus-Sf21 cell expression system from CarnaBio, Inc. A kinase reaction solution was prepared by mixing 25 μg/mL of the recombinant human RIOK2 protein and 100 μM of ATP in 20 μl of kinase reaction buffer (50 mM Tris-HCl, 10 mM MgCl2, 10 mM MnCl2, 1 mM DTT, 0.01% Brij, 1× PhosSTOP (manufactured by Roche Applied Science)), and was incubated at a temperature of 30° C. for 1 hour. After adding 30 μl of 40 mM EDTA solution to this kinase reaction solution, the kinase reaction solution was transferred to a MaxiSorp 96 well plate (manufactured by Nunc). Thereafter, phosphorylated human RIOK2 protein was allowed to adsorb onto the wells by leaving the plate in a refrigerator overnight.
The following day, the supernatant was removed, and the wells were washed three times with ELISA buffer (20 mM Tris-HCl, 150 mM NaCl, 0.2% Tween-20, 0.1% BSA). Thereafter, 100 μl of Blocking-One P (product name; manufactured by Nacalai Tesque, Inc.) was applied to the wells, and a blocking treatment was performed for 1 hour at room temperature. […] After further washing the wells, a secondary antibody, anti-rabbit IgG conjugated with horseradish peroxidase (manufactured by Jackson ImmunoResearch; 1/4000 ELISA buffer-diluted solution), was applied to the wells, and incubation was performed for 30 minutes at room temperature. After washing the wells once again, 50 μl of tetramethyl benzidine (TMB) aqueous solution (manufactured by Nacalai Tesque, Inc.) was applied to the wells, and a coloring reaction was performed for 30 minutes at room temperature. Thereafter, the coloring reaction was stopped by adding 50 μl of 2M H2SO4 to the wells. An absorptiometric level of 450 nm was measured in each well using ARVO SX (manufactured by Wallac).

Test [5] relates to A549. Briefly: Bulk cancer cells, Cell Titer-Glo 72 hours (Test Example 2). It counts as cell-based. Particulars: Homo sapiens. The method, then:
as §1

For test [6], the system named is A549 CSC. Briefly: Cancer stem cells, Cell Titer-Glo 72 hours (Test Example 3). Particulars: Homo sapiens. It counts as cell-based.
Test [7] deals with p-RPS6 Ser240/244. Description: Kinase inhibition, Western blot in HeLa cells (Test Example 5). The class given is cell-based. Particulars: Homo sapiens, 6 hours, DMSO = 100, read-out: p-RPS6 Ser240/244 Relative Intensity (%). The method, then: (§2) HeLa cells were treated with 5 uM of the indicated compound for 6 hours. Following compound incubation, cells were washed twice with ice-cold PBS and lysed in lysis buffer (50 mM HEPES, pH 7.5, 1% Nonidet P40, 150 mM NaCl, 1 mM EDTA, 1× protease inhibitor cocktail (Promega)). 30 micrograms of soluble protein was separated by SDS-PAGE and transferred to PVDF membranes. Primary antibodies against p-AMPK Thr172, p-RPS6 Ser235/236, p-RPS6 Ser240/244, and Tubulin (Cell Signaling Technology) were used. The antigen-antibody complexes were visualized by enhanced chemiluminescence (BioRad). The results are shown below in Tables 17A-17E.
On the technique in general: Immunoblotting shows a protein as a band on a membrane.

The subject of test [8] is p-AMPK Thr172. Described as above. The class given is cell-based. The following applies: Homo sapiens, 6 hours, DMSO = 100, read-out: p-AMPK Relative Intensity (%). The method, then:
as §2

Test [9] concerns p-RPS6 Ser235/236. Described as above. Particulars: Homo sapiens, 6 hours, DMSO = 100, read-out: p-RPS6 Ser235/236 Relative Intensity (%). It counts as cell-based. The method, then: as §2
Test [10] concerns ACHN CSC. Briefly: Cancer stem cells, Cell Titer-Glo 72 hours (Test Example 3). Particulars: Homo sapiens, ACHN, 72 h. It counts as cell-based.

The structures appear in SMILES notation. pIC50: −log10 of the molar value. Read-outs that look alike come from different tables or passages of the source.

T1 sequence (Q9BVS4 whole entry, the tested form may be a part): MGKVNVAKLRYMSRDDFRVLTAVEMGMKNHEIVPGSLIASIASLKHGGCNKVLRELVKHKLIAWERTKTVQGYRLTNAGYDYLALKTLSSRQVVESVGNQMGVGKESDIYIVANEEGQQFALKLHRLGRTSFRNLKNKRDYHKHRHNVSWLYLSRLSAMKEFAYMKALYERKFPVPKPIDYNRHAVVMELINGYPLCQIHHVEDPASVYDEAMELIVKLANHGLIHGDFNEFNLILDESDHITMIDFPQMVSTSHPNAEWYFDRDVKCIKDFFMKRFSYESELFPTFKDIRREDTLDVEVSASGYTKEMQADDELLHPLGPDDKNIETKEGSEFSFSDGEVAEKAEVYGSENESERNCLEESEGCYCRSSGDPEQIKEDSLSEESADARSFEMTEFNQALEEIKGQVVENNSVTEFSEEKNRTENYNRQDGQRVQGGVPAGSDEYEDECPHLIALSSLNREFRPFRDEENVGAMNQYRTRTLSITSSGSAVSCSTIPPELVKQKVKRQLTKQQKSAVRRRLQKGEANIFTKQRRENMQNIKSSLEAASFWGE

For the compound `CCN(CC)CCNC(=O)c1c(C)[nH]c(/C=C2\C(=O)Nc3ccc(-c4ccc(-c5ccccc5)s4)cc32)c1C` [Example 1, (Z)-N-(2-(diethylamino)ethyl)-2,4-dimethyl-5-((2-oxo-5-(5-phenylthiophen-2-yl)indolin-3-ylidene)methyl)-1H-pyrrole-3-carboxamide], the figures for the pIC50 in test [1], in [2] and in [3] were 5.92, 5.32 and 5.12, respectively. Moreover, the inhibition at 10 µM in [4] was 14%.

For the compound `Cc1[nH]c(/C=C2\C(=O)Nc3ccc(-c4nnc(-c5ccccc5)s4)cc32)c(C)c1C(=O)N1CCN(C)CC1` [Example 2], the results for the pIC50 in test [1], in test [2] and in [5] were 6.64, 4.85 and 4.31, respectively. The inhibition at 10 µM in test [4] is 19%.

In the case of `Cc1[nH]c(/C=C2\C(=O)Nc3ccc(-c4ccc(-c5ccccc5)s4)cc32)c(C)c1C(=O)N1CCN(C)CC1` [Example 3], the pIC50 is 5.94 in [1] and 4.59 in test [2]. In addition, the inhibition at 10 µM in [4] was 65%.

Consider `CCN(CC)CCNC(=O)c1c(C)[nH]c(/C=C2\C(=O)Nc3ccc(-c4cnn(-c5ccccc5)c4)cc32)c1C` [Example 4], for which the pIC50 in test [1] is 6.22; in test [6] it was 5.32; in test [2], 5.20; in test [5], 5.27; in test [3], 5.64. For the same compound, the inhibition at 1 µM in [4] amounted to 45%. The inhibition at 10 µM in test [4] was 94%.

Take `CCN(CC)CCNC(=O)c1c(C)[nH]c(/C=C2\C(=O)Nc3cc(-c4ccc(-c5ccccc5)s4)ccc32)c1C` [Example 15]: the pIC50 in test [1] is 4.52. Also, the activity at 5 µM is 56% in [7] (5 uM), 150% in test [8] (5 uM) and 5% in [9] (5 uM).

Turning to `CCN(CC)CCNC(=O)c1c(C)[nH]c(/C=C2\C(=O)Nc3ccc(-c4ncc(-c5ccccc5)o4)cc32)c1C` [Example 19], the pIC50 in test [1] is 4.56; in test [6], 6.46; in test [2], 5.13. Also, the inhibition at 1 µM in [4] turned out to be 32%. Further, the inhibition at 10 µM in test [4] is 56%.

With `CCN(CC)CCNC(=O)c1c(C)[nH]c(/C=C2\C(=O)Nc3ccc(-c4ccnn4-c4ccccc4)cc32)c1C` [Example 22], the pIC50 in test [1] is 5.46; in [6] it was 5.26; in test [10], 5.93; in test [2] it was 5.52; in test [5], 5.53; in [3], 5.18. Also, the inhibition at 1 µM in test [4] is 55%. Also, the inhibition at 10 µM in [4] turned out to be 100%.

As for `CCN(CC)CCNC(=O)c1c(C)[nH]c(/C=C2\C(=O)Nc3ccc(-c4ccc(-c5cccs5)s4)cc32)c1C` [Example 27], the values for the pIC50 in test [1] and in test [2] were 6.08 and 5.60, respectively. The activity at 5 µM was determined as 41% in [7] (5 uM), 21% in test [8] (5 uM) and 5% in [9] (5 uM).

For the compound `Cc1[nH]c(/C=C2\C(=O)Nc3cc(-c4ccc(-c5ccccc5)s4)ccc32)c(C)c1C(=O)N1CCN(C)CC1` [Example 29], the activity at 5 µM was 68% in [7] (5 uM), 108% in test [8] (5 uM) and 36% in test [9] (5 uM).

`CCN(CC)CCNC(=O)c1c(C)[nH]c(/C=C2\C(=O)Nc3ccc(-c4cnn(-c5ccccn5)c4)cc32)c1C` [Example 32]: the pIC50 was 7.30 in test [1]; 5.60 in test [6]; 6.89 in [10]; 6.29 in test [2]; 5.76 in [5]; 5.91 in test [3]. For the same compound, the inhibition at 1 µM in test [4] was 36%. The inhibition at 10 µM in test [4] turned out to be 86%.

As for `Cc1[nH]c(/C=C2\C(=O)Nc3cc(-c4csc(-c5ccccc5)n4)ccc32)c(C)c1C(=O)N1CCOCC1` [Example 36], the negative-log IC50 (pIC50) in test [1] is 4.38. The activity at 5 µM in test [7] (5 uM) worked out at 44%; in test [8] (5 uM) it was 118%; in test [9] (5 uM), 4%.

Turning to `CCN(CC)CCNC(=O)c1c(C)[nH]c(/C=C2\C(=O)Nc3ccc(-c4cnn(C5CCOCC5)c4)cc32)c1C` [Example 47], the pIC50 is 5.59 in test [1], 5.37 in [2], 4.80 in [5] and 4.98 in test [3]. Moreover, in test [4], the inhibition at 1 µM came to 32%. For the same compound, in test [4], the inhibition at 10 µM was found to be 68%.

Regarding `CCN(CC)CCN(C)C(=O)c1c(C)[nH]c(/C=C2\C(=O)Nc3ccc(-c4cnn(-c5ccccc5)c4)cc32)c1C` [Example 92], in test [4], the inhibition at 1 µM is 3% and the inhibition at 10 µM was 113%.

On to `Cc1[nH]c(/C=C2\C(=O)Nc3ccc(-c4cnn(-c5ccccc5)c4)cc32)c(C)c1C(=O)NCC1(N)CCCC1` [Example 93], for which, in test [4], the inhibition at 1 µM amounted to 7% and the inhibition at 10 µM was determined as 65%.

Regarding `Cc1[nH]c(/C=C2\C(=O)Nc3ccc(-c4cnn(-c5ccccc5)c4)cc32)c(C)c1C(=O)NC1CCNCC1` [Example 94], in [4], the inhibition at 1 µM worked out at 17% and the inhibition at 10 µM was determined as 140%.

Consider `Cc1[nH]c(/C=C2\C(=O)Nc3ccc(-c4cnn(-c5ccccc5)c4)cc32)c(C)c1C(=O)NC1[C@H]2CNC[C@@H]12` (stereo partly shown) [Example 95], for which, in [4], the inhibition at 1 µM worked out at 22% and the inhibition at 10 µM was 134%.

For `Cc1[nH]c(/C=C2\C(=O)Nc3ccc(-c4cnn(-c5ccccc5)c4)cc32)c(C)c1C(=O)NC1CNCC(c2ccccc2)C1` (stereo not shown) [Example 96], in [4], the inhibition at 1 µM was -13% and the inhibition at 10 µM came out at 69%.

Consider `Cc1[nH]c(/C=C2\C(=O)Nc3ccc(-c4cnn(-c5ccccc5)c4)cc32)c(C)c1C(=O)NC1(CN2CCCCC2)CC1` [Example 97], for which, in test [4], the inhibition at 1 µM is 6% and the inhibition at 10 µM is 107%.

On to `Cc1[nH]c(/C=C2\C(=O)Nc3ccc(-c4cnn(-c5ccccc5)c4)cc32)c(C)c1C(=O)NCCc1ncc[nH]1` [Example 98], for which, in test [4], the inhibition at 1 µM is -2% and the inhibition at 10 µM came out at 25%.

For the compound `Cc1[nH]c(/C=C2\C(=O)Nc3ccc(-c4cnn(-c5ccccc5)c4)cc32)c(C)c1C(=O)NCc1nc2ccccc2[nH]1` [Example 99], in [4], the inhibition at 1 µM was -11% and the inhibition at 10 µM is 79%.

Turning to `Cc1[nH]c(/C=C2\C(=O)Nc3ccc(-c4cnn(-c5ccccc5)c4)cc32)c(C)c1C(=O)NC[C@H]1CCCN1` [Example 100], in [4], the inhibition at 1 µM worked out at 9% and the inhibition at 10 µM is 126%.

With `Cc1[nH]c(/C=C2\C(=O)Nc3ccc(-c4cnn(-c5ccccc5)c4)cc32)c(C)c1C(=O)NC[C@@H]1CCCN1` [Example 101], in [4], the inhibition at 1 µM came to 13% and the inhibition at 10 µM was found to be 94%.

`COc1ncccc1-c1cccc2c1/C(=C/c1[nH]c(C)cc1C)C(=O)N2` [Example 271] showed a pIC50 in [2] of 4.65. Besides, the activity at 5 µM in test [7] (5 uM compound, Western blot) came out at 67%; in [8] (5 uM compound, Western blot), 105%; in [9] (5 uM compound, Western blot), 67%.
